{"source": "patent US20080194585A1", "about": "“Fungicidal Pyrazine Derivatives” (priority 2005, published 2008)", "key": {"Sclerotinia sclerotiorum": {"system": "Sclerotinia sclerotiorum", "test": "Test C: cucumber white mold, preventive spray on cucumber seedlings", "settings": "Sclerotinia sclerotiorum, in Cucumis sativus, 168 h, read-out: Test C disease control rating, 40 ppm (marked *); 100 = 100% disease control, 0 = no control"}, "Pythium aphanidermatum": {"system": "Pythium aphanidermatum", "test": "Test A: bluegrass pythium blight, preventive spray on bluegrass seedlings", "settings": "Pythium aphanidermatum, 120 h, read-out: Test A disease control rating"}, "[1]": {"system": "Colletotrichum orbiculare", "test": "Test B: cucumber Colletotrichum anthracnose, preventive spray on cucumber seedlings", "settings": "Colletotrichum orbiculare, in Cucumis sativus, 144 h, read-out: Test B disease control rating, 40 ppm (marked *); 100 = 100% disease control, 0 = no control"}, "Botrytis cinerea": {"system": "Botrytis cinerea", "test": "Test E: tomato botrytis, preventive spray on tomato seedlings", "settings": "Botrytis cinerea, in Solanum lycopersicum, topical, 72 h, read-out: Test E disease control rating"}, "[2]": {"system": "Erysiphe graminis f. sp. tritici", "test": "Test L: wheat powdery mildew, preventive spray on wheat seedlings", "settings": "Blumeria graminis, in Triticum aestivum, 168 h, read-out: Test L disease control rating, 40 ppm (marked *); 100 = 100% disease control, 0 = no control"}, "Phytophthora infestans": {"system": "Phytophthora infestans", "test": "whole plant or invertebrate", "format": "in vivo", "settings": "Phytophthora infestans, in Solanum lycopersicum, topical, 144 h, read-out: Test F disease control rating"}, "fusarium graminearium": {"system": "fusarium graminearium", "test": "Test I: wheat head scab, preventive spray on wheat seedlings", "settings": "Fusarium, in Triticum aestivum, topical, 192 h, read-out: Test I disease control rating, 40 ppm (marked *); 100 = 100% disease control, 0 = no control", "experimental": "(the causal agent of wheat head scab) and incubated in a saturated atmosphere at 20° C. for 72 h, and then moved to a growth chamber at 22° C. for 5 days, after which disease ratings were made."}, "Rhizoctonia oryzae": {"system": "Rhizoctonia oryzae", "test": "Test G: turf brown patch, preventive spray on creeping bent grass seedlings", "settings": "Waitea circinata, in Agrostis stolonifera, topical, 144 h, read-out: Test G disease control rating, 40 ppm (marked *); 100 = 100% disease control, 0 = no control", "experimental": "(the causal agent of turf brown patch) and incubated in a saturated atmosphere at 27° C. for 24 h, and then moved to a growth chamber at 27° C. for 5 days, after which disease ratings were made."}, "[3]": {"system": "Puccinia recondita f. sp. tritici", "test": "Test K: wheat leaf rust, preventive spray on wheat seedlings", "settings": "Puccinia recondita, in Triticum aestivum, 192 h, read-out: Test K disease control rating"}, "Plasmopara viticola": {"system": "Plasmopara viticola", "test": "Test D: grape downy mildew, spray after inoculation of grape seedlings", "format": "in vivo", "settings": "Plasmopara viticola, 168 h, 40 ppm (marked *); 100 = 100% disease control, 0 = no control; read-out: Test D disease control rating", "from_the_text": "Upon removal, disease ratings were made. […] A dash (-) indicates no test results."}, "Septoria tritici": {"system": "Septoria tritici", "test": "Test J: wheat leaf blotch, preventive spray on wheat seedlings", "format": "in vivo", "settings": "Zymoseptoria tritici, 528 h; 40 ppm (marked *); 100 = 100% disease control, 0 = no control; read-out: Test J disease control rating", "from_the_text": "A dash (-) indicates no test results."}, "Septoria nodorum": {"system": "Septoria nodorum", "test": "Test H: wheat glum blotch, preventive spray on wheat seedlings", "settings": "Parastagonospora nodorum, in Triticum aestivum, topical, 168 h, read-out: Test H disease control rating, 40 ppm (marked *); 100 = 100% disease control, 0 = no control", "experimental": "(the causal agent of wheat glum blotch) and incubated in a saturated atmosphere at 20° C. for 48 h, and then moved to a growth chamber at 22° C. for 5 days, after which disease ratings were made."}}}
{"smiles": "COc1ccc(Cn2c(-c3c(F)cccc3F)c(Cl)nc(-n3cccn3)c2=O)cc1", "note": "[Compound 271, 5-Chloro-6-(2,6-difluorophenyl)-1-[(4-methoxyphenyl)methyl]-3-(1H-pyrazol-1-yl)-2(1H)-pyrazinone]", "values": [{"measurement": "pest or weed control at 40 ppm", "setting": "Sclerotinia sclerotiorum", "result": 0, "unit": "%"}, {"measurement": "pest or weed control at 40 ppm", "setting": "Pythium aphanidermatum", "result": 0, "unit": "%"}, {"measurement": "pest or weed control at 40 ppm", "setting": "[1]", "result": 0, "unit": "%"}, {"measurement": "pest or weed control at 40 ppm", "setting": "Botrytis cinerea", "result": 0, "unit": "%"}, {"measurement": "pest or weed control at 40 ppm", "setting": "[2]", "result": 0, "unit": "%"}, {"measurement": "melting point", "result": "235 to 236", "unit": "°C"}, {"measurement": "pest or weed control at 40 ppm", "setting": "Phytophthora infestans", "result": 0, "unit": "%"}, {"measurement": "pest or weed control at 40 ppm", "setting": "fusarium graminearium", "result": 0, "unit": "%"}, {"measurement": "pest or weed control at 40 ppm", "setting": "Rhizoctonia oryzae", "result": 0, "unit": "%"}, {"measurement": "pest or weed control at 40 ppm", "setting": "[3]", "result": 32, "unit": "%"}, {"measurement": "pest or weed control at 40 ppm", "setting": "Plasmopara viticola", "result": 0, "unit": "%"}, {"measurement": "pest or weed control at 40 ppm", "setting": "Septoria tritici", "result": 0, "unit": "%"}, {"measurement": "pest or weed control at 40 ppm", "setting": "Septoria nodorum", "result": 0, "unit": "%"}]}
